Measured values taken from patent US7906486B2, “Method of treating or preventing tissue deterioration, injury or damage due to disease of mucosa” (SciClone Pharmaceuticals, Inc., priority 2007, dated 2011).

Test system: oral mucositis induced by cis-platin 5 mg/kg and radiation 35 Gy (left cheek pouch)
Experiment: Oral mucositis induced by a combination of cisplatin and acute radiation in hamsters, mucositis scoring (Example 4, SCI-04)
Assay type: in vivo, Syrian Golden Hamsters
Design: key: 0: Pouch completely healthy. No erythema or vasodilation.; 1: Light to severe erythema and vasodilation. No erosion of mucosa.; 2: Severe erythema and vasodilation. Erosion of superficial aspects of mucosa leaving denuded areas, but no frank ulceration. Decreased stippling of mucosa.; 3: Formation of off-white ulcers in one or more places. Ulcers may have a yellow/gray due to pseudomembrane. Cumulative size of ulcers should equal about ¼ of the pouch. Severe erythema and vasodilation.; 4: Cumulative seize of ulcers should equal about ½ of the pouch. Loss of pliability. Severe erythema and vasodilation.; 5: Virtually all of pouch is ulcerated. Loss of pliability (pouch can only partially be extracted from mouth)
Details: Group 2 (SCV-07 10 μg/kg, day -1 to day 20), individual animal scores, two scores per animal
Method: Forty Golden Syrian hamsters were prospectively randomized into four equally sized groups. Mucositis was induced on the left cheek pouch mucosa of golden Syrian hamsters by a single dose of cis-platin at 5 mg/kg given on day −1, and a single dose of radiation administered on day 0 at a dose of 35Gy. Beginning on day −1 and continuing once daily until day 20, SCV-07 was given by sub-cutaneous injection at doses of 10 μg/kg, 100 μg/kg or 1 mg/kg in a volume of 100 μL. Animals' activity and weight were evaluated daily. Beginning on day 6 and continuing on alternate days for the duration of the study, oral mucositis was evaluated using a standard scoring six point scale. The number of days of ulcerative mucositis was evaluated using a Chi-squared test of scores of ≧3 throughout the study, and the individual daily group scores were assessed with a Rank Sum Test.
The chemo-radiation model of oral mucositis in hamsters, developed by the Principal Investigator, has proven to be an accurate, efficient and cost-effective technique to provide a preliminary evaluation of anti-mucositis compounds. In this model, hamsters received a single dose of cis-platin at 5 mg/kg on day −1, followed by a single dose of radiation of 35 Gy to the left cheek pouch on day 0, rather than the single dose of 40 Gy on day 0 that is used in acute radiation studies. The course of mucositis in this model is very similar to the acute radiation model and results in peak mucositis scores approximately 16-18 days following radiation.
Hamsters received a single dose of cis-platin at 5 mg/kg on day −1 by intra-peritoneal injection, followed by a single dose of radiation of 35 Gy to the left cheek pouch on day 0. This was accomplished by anesthetizing the animals and everting the left buccal pouch, while protecting the rest of the animal's bodies with a lead shield. Test materials were given by sub-cutaneous injection once daily as detailed in Table 13. Mucositis was evaluated clinically starting on day 6, and continuing on alternate days until day 28. Test articles were given as from day −1 to day 20.
The grade of mucositis was scored, beginning day 6, and for every second day thereafter, through and including day 28. The effect on mucositis of each drug treatment compared to placebo was assessed according to the following parameters:
On each evaluation day, the number of animals with a blinded mucositis score of ≧3 in each drug treatment group was compared to the control group. Differences were compared on a cumulative basis and statistical significance was determined by chi-square analysis. Efficacy, in this analysis, is defined by a significant reduction in the number of days that a group of animals had ulcerations (scores 3) when compared to the control group.
For each evaluation day the scores of the control group were compared to those of the treated groups using non-parametric rank sum analysis. Treatment success was considered as a statistically significant lowering of scores in the treated group on 2 or more days from day 6 to day 28.
Forty (40) male Syrian Golden Hamsters were given an intraperitoneal injection of 5 mg/kg Cisplatin on day −1. On day 0 all animals were given an acute radiation dose of 35 Gy directed to their left buccal cheek pouch. This was accomplished by anesthetizing the animals and everting the left buccal pouch, while protecting the rest of the animals with a lead shield. Test materials were given by subcutaneous injection once daily as detailed in Table 13. Mucositis was evaluated clinically starting on Day 6, and continued on alternate days until day 28.
In this study, mucositis was induced with a combination of Cis-platin and radiation. Cis-platin was given as a single injection (IP) of 5 mg/kg on day −1. Radiation was given as a single focal dose of 35 Gy on day 0. Radiation was generated with a Philips 160 kVp (kilovolt potential) (18.75-ma) X-ray source at a focal distance of 30 cm, with a 3.0 mm hardened Al filtration system. […]

N[C@H](CCC(=O)N[C@@H](Cc1c[nH]c2ccccc12)C(=O)O)C(=O)O [SCV-07, γ-D-glutamyl-L-tryptophan]
2: Mucositis score, day 10 (day 10) | Mucositis score, day 12 (day 12) | Mucositis score, day 14 (day 14) | Mucositis score, day 16 (day 16) | Mucositis score, day 18 (day 18) | Mucositis score, day 20 (day 20) | Mucositis score, day 22 (day 22) | Mucositis score, day 24 (day 24) | Mucositis score, day 26 (day 26) | Mucositis score, day 28 (day 28)
